Measurements taken from patent US9181273B2, “Morpholine-spirocyclic piperidine amides as modulators of ion channels” (Vertex Pharmaceuticals Incorporated, priority 2011, dated 2015).

Biological target: human NaV subtype, like NaV 1.7 (Homo sapiens, UniProt Q15858)
Test: E-VIPR optical membrane potential assay with electrical stimulation
Assay type: cell-based
Conditions: active against one or more sodium channels; assay and NaV subtype not specified for Table 3; read-out: IC50 Binned Activity Data
Description: Sodium channels are voltage-dependent proteins that can be activated by inducing membrane voltage changes by applying electric fields. […] The instrument comprises a microtiter plate handler, an optical system for exciting the coumarin dye while simultaneously recording the coumarin and oxonol emissions, a waveform generator, a current- or voltage-controlled amplifier, and a device for inserting electrodes in well. Under integrated computer control, this instrument passes user-programmed electrical stimulus protocols to cells within the wells of the microtiter plate.
24 hours before the assay on E-VIPR, HEK cells expressing human NaV subtype, like NaV 1.7, are seeded in 384-well poly-lysine coated plates at 15,000-20,000 cells per well. Other subtypes are performed in an analogous mode in a cell line expressing the NaV of interest. […] Cells are grown in vented cap flasks, in 90% humidity and 10% CO2, to 100% confluence. They are usually split by trypsinization 1:10 or 1:20, depending on scheduling needs, and grown for 2-3 days before the next split.
To make the solution Add volume of 10% Pluronic F127 stock equal to volumes of CC2-DMPE+DiSBAC6(3). The order of preparation is first mix Pluronic and CC2-DMPE, then add DiSBAC6(3) while vortexing, then add Bath1+β-Cyclodextrin.
1) Pre-spot compounds (in neat DMSO) into compound plates. […] Final compound plate volume will be 80 μL (80-fold intermediate dilution from 1 μL DMSO spot; 160-fold final dilution after transfer to cell plate).
2) Prepare Hexyl Dye Solution.
3) Prepare cell plates. On the day of the assay, medium is aspirated and cells are washed three times with 100 μL of Bath1 Solution, maintaining 25 μL residual volume in each well.
4) Dispense 25 μL per well of Hexyl Dye Solution into cell plates. Incubate for 20-35 minutes at room temp or ambient conditions.
5) Dispense 80 μL per well of Bath1 into compound plates. Acid Yellow-17 (1 mM) is added and Potassium Chloride can be altered from 4.5 to 20 mM depending on the NaV subtype and assay sensitivity.
6) Wash cell plates three times with 100 μL per well of Bath1, leaving 25 μL of residual volume. Then transfer 25 uL per well from Compound Plates to Cell Plates. Incubate for 20-35 minutes at room temp/ambient condition
7) Read Plate on E-VIPR. Use the current-controlled amplifier to deliver stimulation wave pulses for typically 9 seconds and a scan rate of 400 Hz. A pre-stimulus recording is performed for 0.5 seconds to obtain the un-stimulated intensities baseline. The stimulatory waveform is applied for 9 seconds followed by 0.5 seconds of post-stimulation recording to examine the relaxation to the resting state. The stimulatory waveform of the electrical stimulation is specific for each cell type and can vary the magnitude, duration and frequency of the applied current to provide an optimal assay signal.
Data are analyzed and reported as normalized ratios of background-subtracted emission intensities measured in the 460 nm and 580 nm channels. Background intensities are then subtracted from each assay channel. Background intensities are obtained by measuring the emission intensities during the same time periods from identically treated assay wells in which there are no cells. The response as a function of time is then reported as the ratios obtained using the following formula: […]
The data is further reduced by calculating the initial (Ri) and final (Rf) ratios. These are the average ratio values during part or all of the pre-stimulation period, and during sample points during the stimulation period. The response to the stimulus R=Rf/Ri is then calculated and reported as a function of time.
Control responses are obtained by performing assays in the presence of a compound with the desired properties (positive control), such as tetracaine, and in the absence of pharmacological agents (negative control). Responses to the negative (N) and positive (P) controls are calculated as above. The compound antagonist activity A is defined as: […]

Chain of human NaV subtype, like NaV 1.7 (Q15858 whole entry): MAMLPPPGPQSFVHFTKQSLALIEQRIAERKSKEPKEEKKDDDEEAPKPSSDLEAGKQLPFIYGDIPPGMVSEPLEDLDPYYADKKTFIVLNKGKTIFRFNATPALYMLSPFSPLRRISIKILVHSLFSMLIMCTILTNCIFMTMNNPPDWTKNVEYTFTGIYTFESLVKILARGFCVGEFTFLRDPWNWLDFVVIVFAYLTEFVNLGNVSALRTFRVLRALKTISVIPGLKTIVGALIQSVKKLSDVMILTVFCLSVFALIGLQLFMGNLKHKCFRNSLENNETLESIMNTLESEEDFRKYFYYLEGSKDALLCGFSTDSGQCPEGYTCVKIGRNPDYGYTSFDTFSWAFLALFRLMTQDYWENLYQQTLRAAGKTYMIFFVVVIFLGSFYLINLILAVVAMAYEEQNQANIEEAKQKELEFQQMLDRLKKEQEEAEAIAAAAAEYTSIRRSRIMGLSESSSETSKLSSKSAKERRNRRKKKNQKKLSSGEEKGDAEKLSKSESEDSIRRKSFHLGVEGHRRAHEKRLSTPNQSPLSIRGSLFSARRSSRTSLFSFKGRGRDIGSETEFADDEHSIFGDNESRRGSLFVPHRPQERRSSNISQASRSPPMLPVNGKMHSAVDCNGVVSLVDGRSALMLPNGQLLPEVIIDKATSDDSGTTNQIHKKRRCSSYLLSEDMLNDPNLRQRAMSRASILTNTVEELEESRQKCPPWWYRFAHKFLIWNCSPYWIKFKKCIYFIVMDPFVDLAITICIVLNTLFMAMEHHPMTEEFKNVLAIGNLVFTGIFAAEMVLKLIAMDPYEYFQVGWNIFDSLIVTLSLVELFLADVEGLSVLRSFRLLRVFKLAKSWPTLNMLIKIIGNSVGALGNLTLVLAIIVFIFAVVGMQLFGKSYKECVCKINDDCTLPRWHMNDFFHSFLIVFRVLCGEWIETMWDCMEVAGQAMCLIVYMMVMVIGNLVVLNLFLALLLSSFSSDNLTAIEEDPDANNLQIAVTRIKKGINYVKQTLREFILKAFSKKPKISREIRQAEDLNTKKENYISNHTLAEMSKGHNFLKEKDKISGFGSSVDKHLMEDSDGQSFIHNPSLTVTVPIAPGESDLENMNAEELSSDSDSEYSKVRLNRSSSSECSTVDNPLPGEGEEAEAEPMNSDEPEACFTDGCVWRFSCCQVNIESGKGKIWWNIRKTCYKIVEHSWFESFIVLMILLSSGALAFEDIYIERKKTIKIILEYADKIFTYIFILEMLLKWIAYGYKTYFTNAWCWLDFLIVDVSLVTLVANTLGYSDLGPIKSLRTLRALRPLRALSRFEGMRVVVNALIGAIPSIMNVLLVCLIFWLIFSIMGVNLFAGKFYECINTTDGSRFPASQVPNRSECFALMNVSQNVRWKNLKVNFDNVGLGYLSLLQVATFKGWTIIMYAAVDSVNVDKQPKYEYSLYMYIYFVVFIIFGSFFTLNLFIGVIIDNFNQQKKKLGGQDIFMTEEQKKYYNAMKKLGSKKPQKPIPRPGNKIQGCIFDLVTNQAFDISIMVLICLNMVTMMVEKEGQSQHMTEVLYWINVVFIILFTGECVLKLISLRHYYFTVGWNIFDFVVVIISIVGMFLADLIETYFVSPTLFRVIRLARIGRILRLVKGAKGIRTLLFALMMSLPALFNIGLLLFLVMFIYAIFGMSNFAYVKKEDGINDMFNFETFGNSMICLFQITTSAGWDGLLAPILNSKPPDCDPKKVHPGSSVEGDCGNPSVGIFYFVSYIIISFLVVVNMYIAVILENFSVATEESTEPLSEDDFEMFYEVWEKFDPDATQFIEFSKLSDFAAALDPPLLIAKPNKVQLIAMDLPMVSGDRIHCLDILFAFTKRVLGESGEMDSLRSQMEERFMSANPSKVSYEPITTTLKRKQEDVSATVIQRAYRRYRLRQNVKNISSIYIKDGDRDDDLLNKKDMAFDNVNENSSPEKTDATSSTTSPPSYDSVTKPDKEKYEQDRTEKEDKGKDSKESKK

Structure (SMILES)	IC50 [nM]
CC#CCN1CC(CC)OC2(CCN(C(=O)c3ccc(OC)c(C(F)(F)F)c3)CC2)C1 (stereo not drawn) [Compound 30]	> 5000
Cc1cc(C(=O)N2CCC3(CC2)CN(CC(F)(F)F)CC(CCO)O3)ccc1OC(C)C (stereo not drawn) [Compound 146]	2000 to 5000
COc1cc(C(=O)N2CCC3(CC2)CN(CC(F)(F)F)CC(c2ncc(C)s2)O3)ccc1OC(C)C (stereo not drawn) [Compound 152]	< 2000
CCC1CN(c2ncccn2)CC2(CCN(C(=O)c3ccc(C4(O)CCC4)c(C)c3)CC2)O1 (stereo not drawn) [Compound 91]	< 2000
Cc1ccc(C2CN(CC(F)F)CC3(CCN(C(=O)c4ccc(OC(C)C)c(C)c4)CC3)O2)cc1 (stereo not drawn) [Compound 63]	2000 to 5000
COC(C)(C)COc1ccc(C(=O)N2CCC3(CC2)CN(CC(F)(F)F)CC(c2ccccc2)O3)cc1 (stereo not drawn) [Compound 60]	< 2000
Cc1cnc(C2CN(CC(F)(F)F)CC3(CCN(C(=O)c4ccc(OC(C)C)c(C)c4)CC3)O2)s1 (stereo not drawn) [Compound 196]	< 2000
Cc1cc(C(=O)N2CCC3(CC2)CN(CC(F)F)CC(c2ccc(F)cc2)O3)ccc1OCC(C)(C)O (stereo not drawn) [Compound 170]	< 2000
Cc1cc(C(=O)N2CCC3(CC2)CN(CC#N)CC(c2ccccc2)O3)ccc1C(C)(C)O (stereo not drawn) [Compound 68]	2000 to 5000
COCC1CN(c2ccccn2)CC2(CCN(C(=O)c3ccc(OC(C)C)c(C)c3)CC2)O1 (stereo not drawn) [Compound 140]	< 2000
COCC1CN(c2ncccn2)CC2(CCN(C(=O)c3ccc(C(O)C(C)C)cc3)CC2)O1 (stereo not drawn) [Compound 197]	2000 to 5000
Cc1noc(C2CN(CC(F)(F)F)CC3(CCN(C(=O)c4ccc(OC(C)C)c(C)c4)CC3)O2)n1 (stereo not drawn) [Compound 149]	2000 to 5000
COCC1CN(c2cc(OC)ccn2)CC2(CCN(C(=O)c3ccc(OC(C)C)c(C)c3)CC2)O1 (stereo not drawn) [Compound 126]	< 2000
CCc1cnc(C2CN(CC(F)F)CC3(CCN(C(=O)c4ccc(OC(C)C)c(C)c4)CC3)O2)o1 (stereo not drawn) [Compound 214]	2000 to 5000
COCC1CN(CC2CC2)CC2(CCN(C(=O)c3ccc(OC(C)C)c(C)c3)CC2)O1 (stereo not drawn) [Compound 287]	< 2000
CCC1CN(c2ncccn2)CC2(CCN(C(=O)c3ccc(OC(C)C)c(C)c3)CC2)O1 (stereo not drawn) [Compound 236]	< 2000
COCC1CN(c2cccc(C(F)(F)F)c2)CC2(CCN(C(=O)c3ccc(C4(O)CCC4)cc3)CC2)O1 (stereo not drawn) [Compound 223]	< 2000
CC(C)(O)c1ccc(C(=O)N2CCC3(CC2)CN(CC#N)CC(c2ccccc2)O3)cc1 (stereo not drawn) [Compound 275]	> 5000
O=C(c1ccc(C(O)C2CC2)cc1)N1CCC2(CC1)CN(CC(F)(F)F)CC(c1ccccc1)O2 (stereo not drawn) [Compound 59]	< 2000
CC(C)Oc1ccc(C(=O)N2CCC3(CC2)CN(CC(F)(F)F)CC(c2ccccc2)O3)cc1Cl (stereo not drawn) [Compound 213]	< 2000
Cc1cc(C(=O)N2CCC3(CC2)CN(CC(F)F)CC(c2ccccc2)O3)ccc1OC(C)C (stereo not drawn) [Compound 153]	< 2000
CCCN1CC(COC)OC2(CCN(C(=O)c3ccc(OC(C)C)c(C)c3)CC2)C1 (stereo not drawn) [Compound 205]	< 2000
Cc1cc(C(=O)N2CCC3(CC2)CN(CC(F)F)CC(c2ncc(C(C)(C)C)o2)O3)ccc1OC(C)C (stereo not drawn) [Compound 230]	< 2000
CCOc1ccc(C(=O)N2CCC3(CC2)CN(CC)CC(c2ccccc2)O3)cc1CO (stereo not drawn) [Compound 145]	> 5000
Cc1cc(C(=O)N2CCC3(CC2)CN(c2ncccn2)CC(COC(F)F)O3)ccc1OC(C)C (stereo not drawn) [Compound 171]	< 2000
COCC1CN(CC(=O)C2CC2)CC2(CCN(C(=O)c3ccc(OC(C)C)c(C)c3)CC2)O1 (stereo not drawn) [Compound 249]	2000 to 5000
COCC1CN(c2ncccn2)CC2(CCN(C(=O)c3ccc(S(=O)(=O)NC4CC4)cc3)CC2)O1 (stereo not drawn) [Compound 198]	> 5000
Cc1nc(C(=O)N2CCC3(CC2)CN(CC(F)F)CC(c2ccccc2)O3)ccc1OC(C)C (stereo not drawn) [Compound 246]	< 2000
O=C(c1ccc(S(=O)(=O)NC2CC2)cc1)N1CCC2(CC1)CN(CC(F)F)CC(c1ccc(F)cc1)O2 (stereo not drawn) [Compound 280]	2000 to 5000
CC(C)Oc1ccc(C(=O)N2CCC3(CC2)CN(CC(F)(F)F)CC(c2ccccc2)O3)cc1 (stereo not drawn) [Compound 119]	< 2000
